Experimental data from patent US5776935A, “Pyrido-phtalazin diones and their use against neurological disorders associated with excitotoxicity and malfunctioning of glutamatergic neurotransmission” (Merz & Co. GmbH & Co., priority 1996, dated 1998).

Assays:
[1] = molecular target: T1, strychnine-insensitive glycine site (glycineB) of the NMDA receptor (rat cortical membranes) (Rattus norvegicus, UniProt P35439); test: [3H]glycine binding assay; conditions: 20 nM [3H]glycine, 100 μM strychnine
T1 construct: The cortex was dissected and homogenised in 20 volumes of ice-cold 0.32M sucrose; from tissue; host or cells: brain cortex membranes of male Sprague-Dawley rats
Experimental: (§1) Tissue preparation was performed according to Foster and Wong (1987). Male Sprague-Dawley rats (200-250g) were decapitated and their brains were removed rapidly. The cortex was dissected and homogenised in 20 volumes of ice-cold 0.32M sucrose using a glass-Teflon homogenizer. The homogenate was centrifuged at 1000×g for 10 min. The pellet was discarded and the supernatant centrifuged at 20,000×g for 20 min. The resulting pellet was resuspended in 20 volumes of distilled water and centrifuged for 20 min at 8000×g. Then the supernatant and the buffy coat were centrifuged three times (48,000× g for 20 min) in the presence of 5 mM Tris-HCl, pH 7.4. All centrifugation steps were carried out at 4° C. After resuspension in 5 volumes of 5 mM Tris-HCl, pH 7.4 the membrane suspension was frozen rapidly at -80° C. until the day of assay. On the day of assay the membranes were thawed and washed four times by resuspension in 5 mM Tris-HCl, pH 7.4 and centrifugation at 48,000× g for 20 min. The final pellet was suspended in assay buffer.
(§2) The amount of protein in the final membrane preparation was determined according to the method of Lowry (1951) with some modifications (Hartfree, 1972). 50 μl of Protein samples (in triplicates) were diluted to 1 ml with distilled water and treated with 0.9 ml of a solution containing 2 g potassium sodium tartrate and 10 g Na2 CO3 in 500 ml 1N NaOH and 500ml water. Blank and standard (with bovine serum albumin) were set up in the same way. The tubes were placed in a water bath at 50° C. for 10 min. and cooled at room temperature. 100 μl of a solution containing 2 g potassium sodium tartrate and 1 g CuSO4 x 5 H2 O in 90 ml water and 10 ml 1N NaOH were added. The samples were left at room temperature for at least 10 min., then 3 ml of Folin-Ciocalteu reagent (1 ml of reagent diluted with 15 ml water) was added rapidly during mixing. The tubes were again heated at 50° C. for 10 min. and cooled to room temperature. Absorbencies were then read in 1 cm cuvets at 650 nm. The final protein concentration used for our studies was between 100 and 250 μg/ml.
(§3) Incubation in both binding assays was terminated using a Millipore filter system. The samples, all in triplicate, were rinsed three times with 2.5 ml ice cold assay buffer over glass fibre filters obtained from Schleicher & Schuell under a constant vacuum. Following separation and rinse the filters were placed into scintillation liquid (5 ml; Ultima Gold) and radioactivity retained on the filters was determined by using conventional liquid scintillation counter (Hewlett Packard, Liquid Scintillation Analyser). `Total binding` was the absolute amount of radioligand bound in the absence of any additives whereas `non-specific` binding was determined in the presence of a high concentration of competitor.
[^3 H]glycine binding assay
[^3 H]glycine binding assays were performed according to the method described by Kessler and co-workers (1989). Rat cortical membranes were prepared as previously described and the final pellet was suspended in 50 mM Tris-acetate, pH 7.4. At least 5 different concentrations of test compounds were incubated with 2OnM [^3 H]glycine for 30 min at 4° C. in the presence of 100 μM strychnine. All compounds were dissolved in water or DMSO, respectively. Non-specific binding was determined by including 100 μM glycine in the incubation mixture. The incubation was terminated by diluting the samples with 2 ml of stop solution (50 mM Tris-HCl including 10 mM magnesium sulphate, pH 7.4, cooled to <2° C.) followed by a further rinse with 2.5 ml buffer. Filtration was performed as rapidly as possible.

[2] = molecular target: T2, glycineB site of the NMDA receptor (rat cortical membranes) (Rattus norvegicus, UniProt P35439); test: [3H]5,7-DCKA binding assay; conditions: 10 nM [3H]5,7-DCKA
T2 construct: The cortex was dissected and homogenised in 20 volumes of ice-cold 0.32M sucrose; from tissue; host or cells: brain cortex membranes of male Sprague-Dawley rats
Experimental: as §1, §2, §3
[^3 H]5,7-DCKA binding assay
Experiments were performed according to the methods modified from previous groups (Canton et al., 1991; Yoneda et al., 1993). Membranes were suspended and incubated in 10 mM Tris-HCl, pH 7.4. Incubation time was 45 min at 4° C. Non-specific binding of [^3 H]5,7-DCKA was defined by the addition of unlabeled glycine at 0.1 mM. The stop-solution contained 10 mM Tris-HCl and 10 mM magnesium sulphate, pH 7.4. Filtration was performed as rapidly as possible. Displacement experiments were performed with a fixed [^3 H]5,7-DCKA concentration of 10 nM. Test compounds were diluted in water or DMSO and added in at least 5 different concentrations.

[3] = tested on: AMPA; test: Microelectrophoretic application of AMPA to spinal neurones in vivo; conditions: i.v., responses of single rat spinal neurones
Experimental: The ability of these glycineB antagonists to act as NMDA receptor antagonists in vivo was assessed using i.v. administration against responses of single neurones in the rat spinal cord to microelectrophoretic application of AMPA and NMDA.

[4] = tested on: cortical neurones; test: Excitotoxicity in vitro (NMDA, LDH efflux); assay type: cell-based, rat; conditions: for IC50: Rattus norvegicus, Cortical neurone, 0.5 mM NMDA/1 μM glycine, 24 h, read-out: Cytotoxicity in vitro IC50; for neuroprotection in vitro: low μM concentrations
Experimental: Isolation of cortical neurones was similar to that described for patch clamp recordings except for the use of foetal rats at 17-19 days gestation. Neurones were plated in 24-multiwell (Greiner) at a density of 300,000 cells/well coated with poly-D-lysine 0.025 mg/ml. Cells were cultured in Dulbecco's modified essential medium (DMEM, GIBCO) supplemented with 10% heat inactivated foetal calf serum (GIBCO). Cultures were maintained at 37° C. at 5% CO2. The medium was changed first after one week and then every 3 days by replacing half of the medium with fresh medium. Cultures aged 17 days were used for experiments.
Exposure to EAA was performed in serum-free MEM-N2 medium (Bottenstein 1979) containing 0.5 mM NMDA/1 μM glycine and the drug to be tested. Cells were pre-incubated with drugs and 1 μM glycine for 15 minutes before addition of NMDA. After 24 h the cytotoxic effect was morphologically examined under a phase contrast microscope and biochemically quantitified by measuring the efflux of LDH.
The activity of LDH was determined in the supernatant after 24 h according to the method of Wroblewski and La Due (1955). Briefly, 0.1 ml of the supernatant was added to 0.9 ml sodium-phosphate buffer (pH=7.5) containing sodium pyruvate (22.7 mM) and NADH (0.8 mg/10 ml) at room temperature. The conversion of pyruvate to lactate was recorded at 340 nm over 10 minutes in a Kontron Spectrophotometer.

Structure (SMILES) | IC50 [1] [nM] | IC50 [2] [nM] | Microelectrophoretic AMPA ID50 [3] [mg/kg] | IC50 [4] [µM] | neuroprotection in vitro [4] | Microelectrophoretic AMPA ID50 ([3]; listed as 502) [mg/kg] | Microelectrophoretic AMPA ID50 ([3]; listed as 516) [mg/kg]
O=c1[nH]nc(O)c2c1cc1cc(Br)ccc1[n+]2[O-] [Mrz 2/514, 8-bromo-4-hydroxy-1-oxo-1,2-dihydropyridazino[4,5-b]-quinoline 5-oxide] | 4 | 10 | – | – | – | – | –
O=c1[nH][nH]c(=O)c2nc3ccc(F)cc3cc12 [Mrz 2/519] | 15 | 1100 | > 16.0 | – | – | – | –
O=c1[nH][nH]c(=O)c2nc3ccc(Br)cc3cc12 [Mrz 2/503] | 13 | 250 | – | > 20 | – | – | –
O=c1[nH]nc(O)c2c1cc1cc(Cl)ccc1[n+]2[O-] [Mrz 2/502, 8-chloro-4-hydroxy-1-oxo-1,2-dihydropyridazino[4,5-b]-quinoline 5-oxide] | 13 | 20 | – | < 5 | effective neuroprotectants | 4.9 | –
O=c1[nH][nH]c(=O)c2nc3ccc(Cl)cc3cc12 [Mrz 2/501] | 80 | 120 | > 16.0 | < 5 | effective neuroprotectants | – | –
O=c1[nH][nH]c(=O)c2nc3cc(Cl)c(Cl)cc3cc12 [Mrz 2/515] | – | 530 | – | – | – | – | –
O=c1[nH]nc(O)c2c1cc1cc(F)ccc1[n+]2[O-] [Mrz 2/516, 8-fluoro-4-hydroxy-1-oxo-1,2-dihydropyridazino[4,5-b]-quinoline 5-oxide] | 17 | 300 | – | – | – | – | 3.6
